Data: paper PMC10475101, “Selective steroidogenic cytochrome P450 haem iron ligation by steroid-derived isonitriles” (Communications Chemistry, 2023)

How the values were obtained:
CYP3A4 = target: T1, CYP3A4 (Homo sapiens, UniProt P08684); test: in vitro; format: binding
T1 construct: made in house
Description: (Adapted from DeVore, et al.)[25] Ligand interaction with the heme iron was evaluated by titrating ligands into a cuvette containing purified CYP17A1[14], CYP2D6 L230D/L231R[26], or CYP3A4[27] and measured using a UV-visible scanning spectrophotometer. Enzyme was diluted to 0.2 µM in 100 mM potassium phosphate buffer (pH 7.4), 20% glycerol, and 100 mM sodium chloride and divided equally between two 5 mL cuvettes to evaluate high-affinity binding. Ligands dissolved in dimethylsulfoxide (DMSO) were added to the sample cuvette and an equal volume of DMSO to the reference cuvette. Difference spectra were recorded from 300 to 500 nm after equilibration of enzyme and ligand. Binding to the enzyme was measured as the difference in maximal and minimal absorbance: A387—A419 for pregnanolone and 3-formyl pregnanolone, and A435—A393 for compound 1 with CYP17A1; A434—A414 for compound 1 with CYP3A4 and CYP2D6. The dissociation constant and maximum spectral change were calculated using tight-binding or quadratic equation. All data fitting was accomplished using GraphPad Prism 9. Details of fitting are provided in Supplementary Information, and numerical data used to generate graphs in Figs. 2, 4 and 5 are provided in Supplementary Data 3 in Excel format.

CYP106A2 = CYP106A2 (Priestia megaterium, UniProt Q06069); test: Absorbance difference spectra titration of CYP106A2; format: binding, bacterial; settings: 1 µM CYP106A2
Description: Fig. 5 CYP106A2 interaction with steroidal isonitriles. […] Maximum concentration of 2 (light blue trace) is 20 µM. […] Maximum concentration of 4 is ~10 µM (blue trace). C Overlay of 800 MHz ^1H,^15N-TROSY-HSQC spectra of ^15N-Gly-labeled CYP106A2 with levopimaric acid p-benzoquinone Diels-Alder adduct bound after reduction with sodium dithionite and treatment with carbon monoxide (red), or with 7,17-(bis)isonitrile 4 (blue) after anaerobic reduction with sodium dithionite.

T1 sequence (P08684 whole entry): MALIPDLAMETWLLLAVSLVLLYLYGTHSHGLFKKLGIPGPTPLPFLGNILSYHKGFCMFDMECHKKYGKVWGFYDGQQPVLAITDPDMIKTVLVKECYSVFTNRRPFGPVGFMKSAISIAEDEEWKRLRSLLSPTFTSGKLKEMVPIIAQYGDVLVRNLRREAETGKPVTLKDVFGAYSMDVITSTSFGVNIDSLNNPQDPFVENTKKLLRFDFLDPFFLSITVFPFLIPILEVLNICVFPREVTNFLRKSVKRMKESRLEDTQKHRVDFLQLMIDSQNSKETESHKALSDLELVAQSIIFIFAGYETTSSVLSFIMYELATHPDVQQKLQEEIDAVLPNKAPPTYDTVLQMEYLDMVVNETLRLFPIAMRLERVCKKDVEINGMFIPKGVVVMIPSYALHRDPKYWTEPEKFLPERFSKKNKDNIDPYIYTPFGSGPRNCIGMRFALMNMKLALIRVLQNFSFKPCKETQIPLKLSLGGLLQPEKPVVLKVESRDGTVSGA
CYP106A2, sequence (Q06069 whole entry): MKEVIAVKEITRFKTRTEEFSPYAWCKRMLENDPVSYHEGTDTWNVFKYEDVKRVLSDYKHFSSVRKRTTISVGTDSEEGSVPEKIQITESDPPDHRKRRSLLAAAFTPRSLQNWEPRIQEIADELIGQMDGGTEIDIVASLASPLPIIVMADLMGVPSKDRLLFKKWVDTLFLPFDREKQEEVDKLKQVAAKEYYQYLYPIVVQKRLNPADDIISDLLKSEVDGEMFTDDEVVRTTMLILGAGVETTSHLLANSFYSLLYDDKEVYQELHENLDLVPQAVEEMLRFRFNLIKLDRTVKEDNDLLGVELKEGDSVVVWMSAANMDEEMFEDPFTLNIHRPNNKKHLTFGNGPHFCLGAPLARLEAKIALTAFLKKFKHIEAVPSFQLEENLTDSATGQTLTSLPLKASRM

With [C-]#[N+][C@H](C)[C@H]1CC[C@H]2[C@@H]3CC[C@H]4C[C@@H](OC=O)CC[C@]4(C)[C@H]3CC[C@]12C [Compound 1, 3β-formyl-5α-pregnanolone-(R)-20-isonitrile] the “contribution of Fe—C dative bond to the free energy of complexation” value (CYP3A4; CYP3A4, from Kd of 20-(R)-1 versus parent steroid) was ~ 6 kJ/mol, the “dissociation constant for CYP3A4 relative to CYP17A1” value (CYP3A4; CYP3A4 versus CYP17A1) was “more than a billion times higher” and the Kd (CYP3A4; human, pH 7.4, dissociation constant (Kd), protein 200 nM, 5 cm cuvette, tight-binding or quadratic equation, Fig. 4B: n = 3, 95% CI 120–215 nM) was 167 nM. For the same molecule, the “Soret shift on titration indicating Fe—CN—R bond formation” value (CYP3A4; titration of CYP3A4) was 435 nm, the “difference spectrum peak indicative of Fe—CN bond formation” value (CYP3A4; titration of CYP3A4) was 435 nm and the “spectral response / binding mode on CYP106A2” value (CYP106A2) was “does not cause spectral perturbation”. For the same molecule, the “spectral response / binding mode on CYP106A2” value (CYP106A2; listed as 20-(R)-1) was “no evidence for formation of a Fe—C bonded complex”.
